From ChEMBL document CHEMBL4261660, “Synthesis and biological evaluation of a trisaccharide repeating unit derivative of Streptococcus pneumoniae 19A capsular polysaccharide” (Bioorg Med Chem, 2018)

What was measured:
Oryctolagus cuniculus [1] = species: Oryctolagus cuniculus; test: Inhibition of binding of anti-19A rabbit polyclonal antibody to Streptococcus pneumoniae 19A capsular polysaccharide coated on to plates at 1 mg/ml after overnight incubation at 4 to 8 degC by competitive ELISA
Oryctolagus cuniculus [2] = species: Oryctolagus cuniculus; test: Inhibition of anti-19F rabbit polyclonal antibody binding to Streptococcus pneumoniae 19F capsular polysaccharide coated on to plates at 1 mg/ml after overnight incubation ar 4 to 8 degC by competitive ELISA
[3] = Inhibition of binding of anti-19A rabbit polyclonal antibody to Streptococcus pneumoniae 19A capsular polysaccharide coated on to plates after overnight incubation at 4 to 8 degC by competitive ELISA; parameters: species or system Oryctolagus cuniculus
[4] = Inhibition of anti-19F rabbit polyclonal antibody binding to Streptococcus pneumoniae 19F capsular polysaccharide coated on to plates after overnight incubation ar 4 to 8 degC by competitive ELISA; parameters: species or system Oryctolagus cuniculus

## CC(=O)N[C@@H]1[C@H](O[C@H]2[C@H](O)[C@@H](O)[C@@H](O[C@@H]3[C@@H](O)[C@H](C)O[C@@H](OCCCN)[C@@H]3O)O[C@@H]2CO)O[C@H](CO)[C@@H](O)[C@@H]1O.Cl
Oryctolagus cuniculus [1]
  inhibition: 41%
Oryctolagus cuniculus [2]
  inhibition: 32%
[3]
  EC50: 1.3 ×10⁻³ mg/ml
[4]
  EC50: 2.7 ×10⁻² mg/ml
